# Measured values reported in patent US5976523A, “Method for healing compromised tissues using pyrimidine derivatives” (Mitsui Pharmaceuticals, Inc., priority 1995, dated 1999).
# Experiments:
# PDGF-A mRNAs [1] = test: Northern blot analysis of PDGF-A mRNA expression in cultured rat SMCs; assay type: cell-based; settings: vs serum-free medium
# Procedure: SMCs were prepared following the method proposed by Ross and Klebanoff in "J. Cell. Biol.", 50, 159 ff, 1971 with partial modifications. A rat thoracic aorta was excised. After the tunica externa was peeled off, the tunica media and the tunica intima were minced into 2-3 mm^2. The minced sections were placed standstill in a 25-cm^2 flask which contained Waymouth's MB 752/1 medium containing 10% FBS and 80 ng/ml of gentamycin (product of Schering-Plough Corp.), followed by incubation at 37° C. for 2 to 3 weeks in the presence of 5% carbon dioxide gas (primary culture). The same volume of a trypsin-EDTA solution was added to the flask. After the sections were treated at 37° C. for 5 minutes to peel off cells, the cells were diluted with 10% FBS-Waymouth's MB 752/1 medium and then subcultured (second generation). Subculture was successively conducted likewise whenever the SMC became confluent. In the following experiments, the cells from the 5th generation to the 12th generation were employed.
# After reach in confluence of cells, the cultured SMCs were cultured for 2 days in a serum-free medium to avoid influence of serum. The SMCs were then added with thrombin (1.0 U/ml) or serotonin (5 μM), followed by incubation at 37° C. for 6 hours under which bring about induction of PDGF-A mRNAs at the maximum. To prevent dissociation of ribosomes and mRNAs, cycloheximide (100 μg/ml) was added 5 minutes before cells were collected.
# Preparation of a polysome fraction and extraction of RNAs were conducted following the method proposed by Kasper, et al. in "J. Biol. Chem.", 267, 508 ff, 1992 with slight modifications. The cells, which had been collected by the treatment with trypsin, were washed with PBS containing cycloheximide (100 μg/ml). A cell precipitate was then added with 500 μl of a high-salt lysis buffer (20 mM Tris-HCl pH 7.5, 250 mM NaCl, 5 mM MgCl2, 0.1% Noni det P-40, 0.2% DOC) for homogenization. The homogenate was centrifuged under 12,000×g at 4° C. for 10 minutes. The resulting supernatant was added with 67 μl of a heparine mix (7.4 mg/ml heparine, 1.1M NaCl, 15 mM DTT and RNasin). 200 μl of the extract were layered on 5 ml of 0.5-1.25M linear sucrose gradient (which contained 20 mM Tris-HCl pH 7.4, 10 mM NaCl, 3 mM MgCl2), followed by centrifugation under 45,000 rpm for 90 minutes in a "Hitachi RP55ST". While monitoring the absorbance at 260 nm, ten (10) fractions were obtained. To prepare samples for the extraction of RNAs, the fractions were individually added with SDS and proteinase K to give final concentrations of 1% and 0.2 mg/ml, respectively. Subsequent to incubation at 37° C. for 1 hour, each fraction was extracted once with 1/2 volume of phenol, twice with 1/2 volume aliquots of chloroform, and once with the equal volume of chloroform, whereby proteins were removed. The water layer was added with glycogen (20 μg/ml) as a coprecipitant and then with 0.03M of sodium acetate, and RNAs were caused to precipitate with 2 volumes of ethanol.
# After RNAs were incubated at 65° C. for 5 minutes in a solution containing 60% of formamide, 5.9% of formaldehyde and the equal volume of MOPS buffer (10 mM MOPS pH 7.0, 4 mM NaOAc, 0.5 mM EDTA), electrophoresis was conducted across 1.2% agarose gels containing the equal volume of MOPS buffer so that RNAs were. isolated. After the gel was washed with 20 volumes of SSC, RNAs were blotted overnight to a Gene Screen Plus membrane by the capillary method. Fixing of the RNAs was conducted by exposing them for 1 minute at a distance of 10 cm from a 15-W sterilamp. Using a "QuickHyb Hybridization Solution" (product of Strategene Ltd.), hybridization was conducted following the instruction manual attached to the solution. Results of autoradiography were quantitated with reference to the NIH Image. […]
# PDGF-A mRNAs [2] = test: Polysome distribution (translation) of PDGF-A mRNAs in rat SMCs; assay type: cell-based
# Procedure: SMCs were prepared following the method proposed by Ross and Klebanoff in "J. Cell. […] A rat thoracic aorta was excised. After the tunica externa was peeled off, the tunica media and the tunica intima were minced into 2-3 mm^2. The minced sections were placed standstill in a 25-cm^2 flask which contained Waymouth's MB 752/1 medium containing 10% FBS and 80 ng/ml of gentamycin (product of Schering-Plough Corp.), followed by incubation at 37° C. for 2 to 3 weeks in the presence of 5% carbon dioxide gas (primary culture). The same volume of a trypsin-EDTA solution was added to the flask. After the sections were treated at 37° C. for 5 minutes to peel off cells, the cells were diluted with 10% FBS-Waymouth's MB 752/1 medium and then subcultured (second generation). Subculture was successively conducted likewise whenever the SMC became confluent. In the following experiments, the cells from the 5th generation to the 12th generation were employed. After reach in confluence of cells, the cultured SMCs were cultured for 2 days in a serum-free medium to avoid influence of serum. The SMCs were then added with thrombin (1.0 U/ml) or serotonin (5 μM), followed by incubation at 37° C. for 6 hours under which bring about induction of PDGF-A mRNAs at the maximum. To prevent dissociation of ribosomes and mRNAs, cycloheximide (100 μg/ml) was added 5 minutes before cells were collected. […] Biol. Chem.", 267, 508 ff, 1992 with slight modifications. The cells, which had been collected by the treatment with trypsin, were washed with PBS containing cycloheximide (100 μg/ml). A cell precipitate was then added with 500 μl of a high-salt lysis buffer (20 mM Tris-HCl pH 7.5, 250 mM NaCl, 5 mM MgCl2, 0.1% Noni det P-40, 0.2% DOC) for homogenization. The homogenate was centrifuged under 12,000×g at 4° C. for 10 minutes. The resulting supernatant was added with 67 μl of a heparine mix (7.4 mg/ml heparine, 1.1M NaCl, 15 mM DTT and RNasin). 200 μl of the extract were layered on 5 ml of 0.5-1.25M linear sucrose gradient (which contained 20 mM Tris-HCl pH 7.4, 10 mM NaCl, 3 mM MgCl2), followed by centrifugation under 45,000 rpm for 90 minutes in a "Hitachi […]". While monitoring the absorbance at 260 nm, ten (10) fractions were obtained. […] Subsequent to incubation at 37° C. for 1 hour, each fraction was extracted once with 1/2 volume of phenol, twice with 1/2 volume aliquots of chloroform, and once with the equal volume of chloroform, whereby proteins were removed. The water layer was added with glycogen (20 μg/ml) as a coprecipitant and then with 0.03M of sodium acetate, and RNAs were caused to precipitate with 2 volumes of ethanol. After RNAs were incubated at 65° C. for 5 minutes in a solution containing 60% of formamide, 5.9% of formaldehyde and the equal volume of MOPS buffer (10 mM MOPS pH 7.0, 4 mM NaOAc, 0.5 mM EDTA), electrophoresis was conducted across 1.2% agarose gels containing the equal volume of MOPS buffer so that RNAs were. isolated. After the gel was washed with 20 volumes of SSC, RNAs were blotted overnight to a Gene Screen Plus membrane by the capillary method. Fixing of the RNAs was conducted by exposing them for 1 minute at a distance of 10 cm from […]. Using a "QuickHyb Hybridization Solution" (product of Strategene Ltd.), hybridization was conducted following the instruction manual attached to the solution. Results of autoradiography were quantitated with reference to the NIH Image. […]
Compound,"fold induction at 5 µM (PDGF-A mRNAs [1]; Rattus norvegicus, 6 h, sole addition of serotonin (5 μM), read-out: expression amount of 1.7 kb PDGF-A mRNAs compared with control)",translation state of the three kinds of PDGF-A mRNAs (PDGF-A mRNAs [2]; serotonin alone),expression amount of 1.7 kb PDGF-A mRNAs compared with control (PDGF-A mRNAs [1]; sole addition of thrombin (1.0 U/ml)),"translation state of 1.7 kb, 2.3 kb and 2.9 kb PDGF-A mRNAs (PDGF-A mRNAs [2]; thrombin alone)"
"NCCc1c[nH]c2ccc(O)cc12 [serotonin, reference compound]",1.7,all in translated forms,–,–
thrombin,–,–,1.5 times,both those in a translated form and those in the non-translated form
